Results: patent US4731357A (Imperial Chemical Industries PLC, priority 1985, dated 1988)

Legend:
[1] = system: sectioned Achilles tendons; experiment: Healing of sectioned Achilles tendons in the rat, urogastrone injected twice daily at the tendon lesion (experiment 1, Table 1); assay type: in vivo
Protocol: (§1) Male Wistar rats (240 g.) were subjected under general anaesthesia to partial tendonotomy of the left Achilles tendon, the small skin wound was then sutured and the animals allowed to recover. […] Normal saline was injected into a control group of operated animals (group [C]). […] After termination the scar tissue was removed from the point of insertion into the calcaneus bone to the point of merger of the tendon into the muscle mass. Weights of the scar tissue were measured after drying and defatting as described in Greenwald, S. E. and Berry, C. L. Cardiovasc. Res. 12,364-372 (1978). The collagen content was obtained from hydroxyproline measurements as described in Grant, R. A. J. Clin. Path. 17, 685-686 (1964) on the tissue after proteolytic (see Smith, R. L., Gilberson, E., Koliatsu, N., Merchant, T. and Schurman, D. J. Analyst. Biochem. 103, 191-200 (1980)) and alkaline (see Huzar, G., Maiocco, J. and Naftolin, F. Analyt. Biochem. 105 424-439 (1980)) digestion. The DNA content of the digests was determined using a sensitive fluorimetric technique (as described in Hinegardner, R. T. Analyt. Biochem. 39, 197-201). The results are ±SEM and were analyzed by Student' s t test. Figures in parentheses indicate the numbers of animals used in each group.

[2] = system: Intact tendon; experiment: Urogastrone injected twice daily into the corresponding region of the unoperated leg (intact tendon, group B, Table 1); assay type: in vivo, rat; conditions: for Collagen / DNA / dry wt: intact tendon plus urogastrone 20 μg./kg. twice daily, ±SEM
Protocol: as §1

[3] = system: sectioned Achilles tendons; experiment: Longer term effects of urogastrone injections on healing of sectioned Achilles tendons in the rat (experiment 2, Table 2); assay type: in vivo; conditions: for Lesion DNA / Lesion dry wt / Lesion Collagen: ±SEM
Protocol: as §1

[4] = system: sectioned Achilles tendon; experiment: Graded doses of urogastrone on healing of sectioned Achilles tendons in rats (Example 2, FIGS. 3 and 4); assay type: in vivo, rat; conditions: 15 days after surgery
Protocol: The graded doses were injected twice daily into the immediate vicinity of the sectioned tendon.
FIG. 4 corresponds to FIG. 3, but represents graphically the collagen content of the repair lesions at the injected zone 15 days after surgery rather than the dry weight of the scar tissue formed at the said zone 15 days after surgery.
The rats employed were male Wistar rats (240 g) and the Achilles tendons were sectioned as described in Example 1.
Graded doses of urogastrone were given twice daily by injection into the immediate vicinity of the sectioned Achilles tendon in rats. […] FIGS. 3 and 4 present the dry weights and collagen contents respectively of the injected zones 15 days after surgery.

[5] = system: intact tendons; experiment: Urogastrone 100 ug/kg injected twice daily into intact tendons in unoperated rats (Example 2); assay type: in vivo, rat; conditions: highest dose (100 ug./kg. twice daily); 15 days
[6] = system: acid secretion in the stomach; conditions: administered parenterally; known; cited from earlier work
[7] = 5 days after surgery, sectioned tendon, 20 μg./kg. twice daily at lesion, ±SEM, p < 0.001 vs saline
[8] = 9 days after surgery, sectioned tendon, 20 μg./kg. twice daily at lesion, ±SEM, p < 0.001 vs saline
[9] = first five days following surgery, statistically highly significant
[10] = 30 days after surgery, urogastrone days 1-15 then 15 days without treatment, NS vs saline

For Urogastrone, the “Lesion DNA” value [1, 7] was 517 ± 12 µg, the Lesion dry wt [1, 7] was 42.9 ± 2.0 mg and the “Lesion DNA” value [1, 8] was 653 ± 20 µg. The Lesion dry wt [1, 8] was 61.1 ± 2.0 mg, the “Lesion Collagen” value ([1]; 9 days after surgery, sectioned tendon, 20 μg./kg. twice daily at lesion, ±SEM, p < 0.05 vs saline) was 16.8 ± 0.9 mg and the “Lesion DNA” value ([1]; 15 days after surgery, sectioned tendon, 20 μg./kg. twice daily at lesion, ±SEM, NS vs saline) was 556 ± 23 µg. The Lesion dry wt ([1]; 15 days after surgery, sectioned tendon, 20 μg./kg. twice daily at lesion, ±SEM, p < 0.001 vs saline) was 53.3 ± 2.8 mg, the “Apparent increase in DNA content of urogastrone-treated lesions” value ([1]; day 15, not significantly different from the control value) was 8% and the “Increase in collagen over saline-injected controls” value ([1]; fifteen days after surgery) was 28%. For the same substance, the “Increase in dry weight over saline-injected controls” value ([1]; fifteen days after surgery) was 24%, the “Increase in collagen content of scar tissue compared with saline-injected controls” value [1, 9] was 61% and the “Increase in dry weight of scar tissue compared with saline-injected controls” value [1, 9] was 38%. It also gave a Collagen ([2]; 5 days, NS vs intact tendon) of 6.1 ± 0.3 mg, a DNA ([2]; 5 days, NS vs intact tendon) of 94.3 ± 8.5 µg and a dry wt ([2]; 5 days, NS vs intact tendon) of 12.7 ± 1.6 mg. It also gave a Collagen ([2]; 9 days, NS vs intact tendon) of 7.0 ± 0.5 mg, a dry wt ([2]; 9 days, NS vs intact tendon) of 14.1 ± 1.2 mg and a DNA ([2]; 9 days, p < 0.05 vs intact tendon) of 124 ± 10 µg. The Collagen ([2]; 15 days, NS vs intact tendon) was 7.0 ± 0.3 mg, the DNA ([2]; 15 days, NS vs intact tendon) was 101 ± 6 µg and the “Effect on unoperated tendon in the opposite leg” value ([2]; injected twice daily, throughout the treatment period, possible exception of increased DNA content after nine days) was “little or no effect”. The “Lesion DNA” value ([3]; 15 days after surgery, urogastrone days 1-15, 20 ug./kg. twice daily, NS vs saline) was 668 ± 32 µg, the Lesion dry wt ([3]; 15 days after surgery, urogastrone days 1-15, 20 ug./kg. twice daily, p < 0.001 vs saline) was 61.8 ± 1.3 mg and the “Lesion Collagen” value ([3]; 15 days after surgery, urogastrone days 1-15, 20 ug./kg. twice daily, p < 0.01 vs saline) was 28.1 ± 0.9 mg. The “Lesion Collagen” value [3, 10] was 28.7 ± 1.2 mg, the Lesion dry wt [3, 10] was 50.2 ± 1.1 mg and the “Lesion DNA” value ([3]; 30 days after surgery, urogastrone days 1-15 then 15 days without treatment, p < 0.05 vs saline) was 397 ± 17 µg. The “Lesion DNA” value ([3]; 30 days after surgery, urogastrone days 1-30, 20 ug./kg. twice daily, NS vs saline) was 495 ± 17 µg, the “Lesion Collagen” value ([3]; 30 days after surgery, urogastrone days 1-30, 20 ug./kg. twice daily, p < 0.001 vs saline) was 32.1 ± 1.3 mg and the Lesion dry wt ([3]; 30 days after surgery, urogastrone days 1-30, 20 ug./kg. twice daily, p < 0.01 vs saline) was 56.8 ± 2.0 mg. The “Dry weight and collagen content of the scars versus animals untreated throughout” value ([3]; dosing stopped after fifteen days, treatment free for a further fifteen days) was “no longer distinguishable”, the “Collagen content of repair lesion higher than saline-treated control lesions” value ([3]; thirty days on urogastrone) was 27% and the “DNA contents of urogastrone versus saline-treated lesions” value ([3]; thirty days on urogastrone) was “essentially the same”. The “Dry weight of repair lesion higher than saline-treated control lesions” value ([3]; thirty days on urogastrone) was 19%, the “Collagen contents of the repair lesions” value ([4]; 20 μg./kg. twice daily) was “not in the collagen contents” and the “Dry weights of the repair lesions” value ([4]; 20 μg./kg. twice daily) was “statistically significant increase”. The “Collagen contents of the repair lesions” value ([4]; 50 μg./kg. twice daily) was “significantly increased”, the “Dry weights of the repair lesions” value ([4]; 50 μg./kg. twice daily) was “significantly increased” and the “Collagen contents of the repair lesions” value ([4]; 100 μg./kg. twice daily) was “significantly increased”. For the same substance, the “Dry weights of the repair lesions” value ([4]; 100 μg./kg. twice daily) was “significantly increased”, the Collagen contents [5] was “increased” and the Dry weight [5] was “increased”. The “Acid secretion in the stomach” value [6] was “inhibit acid secretion in the stomach”.
